Columns and labels:
[1] = system: selectively-bred alcohol preferring rats; assay: Alcohol Preferring Rats In Vivo Model (two-bottle choice); design: species or system rat; conditions: for 6 hr Ethanol (alcohol intake) / 6 hr Preference (alcohol preference): 6 h after administration; for 6 hr Ethanol (alcohol intake) / 6 hr Preference (alcohol preference) / 24 hr Ethanol (alcohol intake) / 24 hr Preference (alcohol preference): mean ± SEM; for 24 hr Ethanol (alcohol intake) / 24 hr Preference (alcohol preference): 24 h after administration
Protocol: Adult male selectively-bred alcohol preferring rats (which are known in the art to be useful for the study of the effect of test compounds on vountary alcohol intake) were grouped into three groups: vehicle and Compound #8 (50 and 100 mg/kg, po). Rats were housed individually in wire mesh cages under a constant room temperature of 22±1° C. and 12:12 light-dark cycle (8:00-20:00, dark). The animals were fed Agway Prolab Rat/Mouse/ Hamster 3000 formula and water ad libitum.
Alcohol intake was determined using the standard two-bottle choice method. Animals were first given free access to water in a graduated Richter tube for 2 days. Then they were given access to only a solution of 10% (v/v) ethanol for 3 consecutive days. During this period animals became accustomed to drinking from Richter tubes and to the taste and pharmacological effects of alcohol. Thereafter, they were given free access to both water and a solution of 10% alcohol for at least 4 consecutive weeks and throughout the study period. Rats had free access to food. Water and alcohol intake were recorded at 4, 6 and 24 hours after the treatment, whereas food intake was measured at 24 hour. Animals' body weight was measured every day.
After establishment of a stable baseline for alcohol, food, and water intake, rats were administered either vehicle or Compound #8 via oral gavage using a cross-over design with random assignment. To be able to compare the efficacy of these compounds on alcohol intake with an established FDA-approved drug, naltrexone, was included as a positive control. Same rats were given an oral dose of naltrexone (20mg/kg). The interval between treatments was at least 3 days. Alcohol and water intake were recorded 4, 6 and 24 h after the drug administration and food intake was recorded at 24 hr. A total of 8-10 animals per group were used.
The results below are presented as means ±SEM. Alcohol intake (g/kg) was calculated by multiplying the volume of alcohol consumed in ml by 10% and 0.7893 (ethanol density)/body weight in kg. Alcohol preference, expressed as percentage, was calculated as follows: (volume of alcohol consumed in ml/total fluid intake in ml)×100 (Rezvani and Grady, 1994; Rezvani et al., 1997). Statistical differences between drug-treated and control groups were determined by using ANOVA and Turkey Student's t test for multiple comparison.

NS(=O)(=O)NC[C@H]1COc2cc(Cl)ccc2O1 [Compound #8, (2S)-(−)-N-(6-Chloro-2,3-dihydro-benzo[1,4]dioxin-2-ylmethyl)-sulfamide]
6 hr Ethanol (alcohol intake) ([1]; 50 mg/kg po): 1.28 ± 0.25 g/kg | 6 hr Preference (alcohol preference) ([1]; 50 mg/kg po): 67 ± 11% | 24 hr Ethanol (alcohol intake) ([1]; 50 mg/kg po): 4.79 ± 0.5 g/kg | 24 hr Preference (alcohol preference) ([1]; 50 mg/kg po): 77 ± 7% | 6 hr Ethanol (alcohol intake) ([1]; 100 mg/kg po): 1.33 ± 0.17 g/kg | 6 hr Preference (alcohol preference) ([1]; 100 mg/kg po): 75 ± 8% | 24 hr Ethanol (alcohol intake) ([1]; 100 mg/kg po): 4.35 ± 0.66 g/kg | 24 hr Preference (alcohol preference) ([1]; 100 mg/kg po): 70 ± 9% | effect on ethanol consumption ([1]; alcohol-preferring rats, 6 h post-dosing, 50 and 100 mg/kg dose): decreased ethanol consumption

O=C1CC[C@@]2(O)[C@H]3Cc4ccc(O)c5c4[C@@]2(CCN3CC2CC2)[C@H]1O5 [Naltrexone, naltrexone, reference compound]
6 hr Ethanol (alcohol intake) ([1]; 20 mg/kg oral): 0.77 ± 0.24 g/kg | 6 hr Preference (alcohol preference) ([1]; 20 mg/kg oral): 64 ± 12% | 24 hr Ethanol (alcohol intake) ([1]; 20 mg/kg oral): 4.48 ± 0.57 g/kg | 24 hr Preference (alcohol preference) ([1]; 20 mg/kg oral): 76 ± 9%

CN(CC1COc2ccccc2O1)S(N)(=O)=O (racemic)
melting point: 97 to 98 °C

NS(=O)(=O)NCCC1COc2ccccc2O1 (stereo not drawn)
melting point: 101 to 103 °C

NS(=O)(=O)NCC1CCc2ccccc2O1 (stereo not drawn)
melting point: 100 to 101 °C

CN(C)S(=O)(=O)NCC1COc2ccccc2O1 (racemic)
melting point: 76 to 78 °C

NS(=O)(=O)NC[C@H]1COc2cc(Cl)c(Cl)cc2O1
melting point: 119 to 121 °C
